Assay results published in patent publication US7736624B2, “Methods and compositions for diagnostic and therapeutic targeting of COX-2” (priority 2006, dated 2010).
pIC50: −log10 of the molar value. Read-outs that look alike come from different tables or passages of the source.

Assays:
ovine COX-1 = biological target: T1, ovine COX-1 (Ovis aries, UniProt P05979); test: IC50 determinations using purified enzymes (TLC assay), COX-1; type: biochemical; details: assayed against purified enzymes
T1 construct: can be purified from ovine seminal vesicles by standard procedures; from tissue; host or cells: ovine seminal vesicles
T1 sequence (P05979 25-600): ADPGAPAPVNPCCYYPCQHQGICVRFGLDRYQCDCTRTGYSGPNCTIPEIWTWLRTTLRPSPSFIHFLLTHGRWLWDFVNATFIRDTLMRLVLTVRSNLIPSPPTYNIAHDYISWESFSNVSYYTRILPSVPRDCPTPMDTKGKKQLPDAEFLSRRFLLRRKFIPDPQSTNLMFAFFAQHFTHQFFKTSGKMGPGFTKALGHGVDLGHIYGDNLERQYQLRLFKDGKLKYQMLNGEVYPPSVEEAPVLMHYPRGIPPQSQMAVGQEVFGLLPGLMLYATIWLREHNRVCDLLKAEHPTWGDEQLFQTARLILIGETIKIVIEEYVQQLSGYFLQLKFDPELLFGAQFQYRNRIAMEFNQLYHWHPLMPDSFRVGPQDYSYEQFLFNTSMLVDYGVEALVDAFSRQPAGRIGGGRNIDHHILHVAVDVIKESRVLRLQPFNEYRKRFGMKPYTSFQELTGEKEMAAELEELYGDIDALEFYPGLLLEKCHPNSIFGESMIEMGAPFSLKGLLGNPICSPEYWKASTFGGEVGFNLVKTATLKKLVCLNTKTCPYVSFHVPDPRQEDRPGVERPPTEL

COX-2 = biological target: T2, COX-2 (Homo sapiens, UniProt P35354); test: IC50 determinations using purified enzymes (TLC assay), COX-2; type: biochemical; design: made in house; host or cells: Sf9 insect cells; details: assayed against purified enzymes, read-out: IC50 COX-2
T2 sequence (P35354 18-604): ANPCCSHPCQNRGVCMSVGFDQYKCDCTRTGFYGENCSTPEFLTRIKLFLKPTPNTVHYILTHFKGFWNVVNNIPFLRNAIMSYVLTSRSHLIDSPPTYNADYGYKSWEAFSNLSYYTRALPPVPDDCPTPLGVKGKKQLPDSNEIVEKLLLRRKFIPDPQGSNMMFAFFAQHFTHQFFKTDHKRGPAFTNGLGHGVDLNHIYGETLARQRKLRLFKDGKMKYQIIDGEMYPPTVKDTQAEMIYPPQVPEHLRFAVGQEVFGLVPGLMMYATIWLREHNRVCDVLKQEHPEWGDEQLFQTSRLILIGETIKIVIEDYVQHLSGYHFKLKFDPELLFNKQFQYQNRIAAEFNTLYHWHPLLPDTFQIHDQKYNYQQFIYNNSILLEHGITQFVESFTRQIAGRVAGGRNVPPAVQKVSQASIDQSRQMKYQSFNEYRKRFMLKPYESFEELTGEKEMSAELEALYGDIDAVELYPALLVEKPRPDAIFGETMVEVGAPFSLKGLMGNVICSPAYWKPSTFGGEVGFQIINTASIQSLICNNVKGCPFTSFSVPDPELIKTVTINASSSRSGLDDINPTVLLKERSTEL

Structure (SMILES)	pIC50 (ovine COX-1; Table 3)	pIC50 (COX-2; Table 3)	pIC50 (ovine COX-1; Table 2)	pIC50 (COX-2; Table 2)
COc1ccc2c(c1)c(CC(=O)NCCCCNC(=O)c1ccc(C3=c4cc5c6c(c4Oc4c3cc3c7c4CCCN7CCC3)CCC[N+]=6CCC5)c(C(=O)[O-])c1)c(C)n2C(=O)c1ccc(Cl)cc1 [Compound 27eee]	< 4.60	6.15	–	–
COc1ccc2c(c1)c(CC(=O)NCCCCNC(=O)Cc1ccc(Nc3ccc([N+](=O)[O-])c4nonc34)cc1)c(C)n2C(=O)c1ccc(Cl)cc1 [Compound 27ii, N-([2-{4-(7-nitrobenzo[1,2,5]oxadiazol-4-ylamino)phenyl}acetamido]but-4-yl)-2-{1-(4-chlorobenzoyl)-5-methoxy-2-methyl-1H-indol-3-yl]acetamide]	< 4.60	6.30	–	–
COc1ccc2c(c1)c(CC(=O)NCCCCNC(=O)c1ccc(C(=O)[O-])c(C3=c4cc5c6c(c4Oc4c3cc3c7c4CCCN7CCC3)CCC[N+]=6CCC5)c1)c(C)n2C(=O)c1ccc(Cl)cc1 [Compound 27vv]	< 4.60	5.46	–	–
COc1ccc2c(c1)c(CC(=O)NCCNS(=O)(=O)c1cccc3c(N(C)C)cccc13)c(C)n2C(=O)c1ccc(Cl)cc1 [Compound 27x]	< 4.60	7.18	–	–
COC(=O)c1cc(-c2ccc(C)cc2)n(-c2ccc(S(N)(=O)=O)cc2)n1 [Compound 30b]	–	–	< 4.60	6.04

More lines, now with the values ahead:

pIC50 (ovine COX-1; Table 3)	pIC50 (COX-2; Table 3)	pIC50 (ovine COX-1; Table 2)	pIC50 (COX-2; Table 2)	Structure (SMILES)
< 4.60	7.10	–	–	COc1ccc2c(c1)c(CC(=O)NCCNS(=O)(=O)c1ccc(/N=N/c3ccc(N(C)C)cc3)cc1)c(C)n2C(=O)c1ccc(Cl)cc1 [Compound 27aa, N-(2-Dabsylaminoethyl)-2-{1-(4-chlorobenzoyl)-5-methoxy-2-methyl-1H-indol-3-yl}acetamide]
< 4.60	< 4.60	–	–	COc1ccc2c(c1)c(CC(=O)NCCCCNC(=O)c1ccc(C(=O)O)c(-c3c4ccc(=O)cc-4oc4cc(O)ccc34)c1)c(C)n2C(=O)c1ccc(Cl)cc1 [Compound 27qq, N-[(Fluorescein-6-carboxylamido)but-4-yl]-2-[1-(4-chlorobenzoyl)-5-methoxy-2-methyl-1H-indol-3-yl)acetamide]
< 4.60	6.00	–	–	CC[N+](CC)=c1ccc2c(-c3ccccc3)c(C)c(/C=C/C=C3/N(CCCCCC(=O)NCCCCNC(=O)Cc4c(C)n(C(=O)c5ccc(Cl)cc5)c5ccc(OC)cc45)c4ccc(S(=O)(=O)[O-])cc4C3(C)C)oc-2c1 [Compound 27ttt]
< 4.60	5.77	–	–	CC[N+](CC)=c1ccc2nc3c(cc(NC(=O)CCOCCOCCOCCOCCNC(=O)Cc4c(C)n(C(=O)c5ccc(Cl)cc5)c5ccc(OC)cc45)c4ccccc43)oc-2c1 [Compound 27uu, N-[5-)1-{1-(4-chlorobenzoyl)-5-methoxy-2-methyl-1H-indol-3-yl}-2-6,9,12,15-tetraoxa-3-azaoctadecanamido]-9H-benzo[a]penoxazin-9-ylidene)-N-ethylethanaminium perchlorate]
